# Key:
# Type in all cases: in vivo
# [1] = system: Surinam grass (Brachiaria decumbens); assay: Test B pre/postemergence
# Source text: (§1) Seeds selected from barnyardgrass (Echinochloa crus-galli), Surinam grass (Brachiaria decumbens), cocklebur (Xanthium strumarium), corn (Zea mays), crabgrass (Digitaria sanguinalis), giant foxtail (Setaria faberii), lambsquarters (Chenopodium album), morningglory (Ipomoea coccinea), pigweed (Amaranthus retroflexus), velvetleaf (Abutilon theophrasti), and wheat (Triticum aestivum) were planted and treated preemergence with test chemicals formulated in a non-phytotoxic solvent mixture which included a surfactant.
# (§2) At the same time, plants selected from these crop and weed species and also blackgrass (Alopecurus myosuroides) and wild oat (Avena fatua) were treated with postemergence applications of test chemicals formulated in the same manner. Plants ranged in height from 2 to 18 cm (1- to 4-leaf stage) for postemergence treatments. Plant species in the flooded paddy test consisted of rice (Oryza sativa), umbrella sedge (Cyperus difformis), duck salad (Heteranthera limosa) and barnyardgrass (Echinochloa crus-galli) grown to the 2-leaf stage for testing. Treated plants and controls were maintained in a greenhouse for 13 to 15 days, after which time all species were compared to controls and visually evaluated. Plant response ratings, summarized in Table B, are based on a scale of 0 to 100 where 0 is no effect and 100 is complete control. A dash (-) response means no test result.
# [2] = system: barnyardgrass (Echinochloa crus-galli); assay: Test B pre/postemergence
# Source text: as §1, §2
# [3] = system: cocklebur (Xanthium strumarium); assay: Test B pre/postemergence
# Source text: as §1, §2
# [4] = system: corn (Zea mays); assay: Test B pre/postemergence
# Source text: as §1, §2
# [5] = system: crabgrass (Digitaria sanguinalis); assay: Test B pre/postemergence
# Source text: as §1, §2
# [6] = system: giant foxtail (Setaria faberii); assay: Test B pre/postemergence
# Source text: as §1, §2
# [7] = system: lambsquarters (Chenopodium album); assay: Test B pre/postemergence; details: Postemergence; for Lambsquarters plant response rating: 125 g ai/ha, scale 0 to 100 (0 no effect, 100 complete control); for Plant response rating, Lambsquarters: 500 g ai/ha, scale 0 to 100
# Source text: as §1, §2
# [8] = system: morningglory (Ipomoea coccinea); assay: Test B pre/postemergence
# Source text: as §1, §2
# [9] = system: pigweed (Amaranthus retroflexus); assay: Test B pre/postemergence
# Source text: as §1, §2
# [10] = system: velvetleaf (Abutilon theophrasti); assay: Test B pre/postemergence
# Source text: as §1, §2
# [11] = system: wheat (Triticum aestivum); assay: Test B pre/postemergence
# Source text: as §1, §2
# [12] = system: blackgrass (Alopecurus myosuroides); assay: Test B postemergence; details: for Blackgrass plant response rating: 125 g ai/ha, scale 0 to 100 (0 no effect, 100 complete control); for Plant response rating, Blackgrass: 500 g ai/ha, scale 0 to 100
# Source text: as §1, §2
# [13] = system: wild oat (Avena fatua); assay: Test B postemergence; details: for Oat, Wild plant response rating: 125 g ai/ha, scale 0 to 100 (0 no effect, 100 complete control); for Plant response rating, Oat, Wild: 500 g ai/ha, scale 0 to 100
# Source text: as §1, §2
# [14] = Postemergence, 125 g ai/ha, scale 0 to 100 (0 no effect, 100 complete control)
# [15] = Postemergence, 500 g ai/ha, scale 0 to 100
# [16] = Preemergence, 125 g ai/ha, scale 0 to 100 (0 no effect, 100 complete control)
# [17] = Preemergence, 500 g ai/ha, scale 0 to 100 (0 no effect, 100 complete control)
smiles,measurement,setting,value
CCOC(=O)c1nc(C2CC2)nc(NNC(C)=O)c1Br [Compound 126],Surinam Grass plant response rating,[1]; [14],0
same,"Plant response rating, Surinam Grass",[1]; [15],70
same,"Plant response rating, Surinam Grass",[1]; [16],0
same,"Plant response rating, Surinam Grass",[1]; [17],20
same,Barnyardgrass plant response rating,[2]; [14],0
same,"Plant response rating, Barnyardgrass",[2]; [15],0
same,"Plant response rating, Barnyardgrass",[2]; [16],0
same,"Plant response rating, Barnyardgrass",[2]; [17],0
same,Cocklebur plant response rating,[3]; [14],0
same,"Plant response rating, Cocklebur",[3]; [15],0
same,"Plant response rating, Cocklebur",[3]; [16],0
same,"Plant response rating, Cocklebur",[3]; [17],90
same,Corn plant response rating,[4]; [14],0
same,"Plant response rating, Corn",[4]; [15],10
same,"Plant response rating, Corn",[4]; [16],0
same,"Plant response rating, Corn",[4]; [17],0
same,Crabgrass plant response rating,[5]; [14],0
same,"Plant response rating, Crabgrass",[5]; [15],20
same,"Plant response rating, Crabgrass",[5]; [16],80
same,"Plant response rating, Crabgrass",[5]; [17],100
same,"Foxtail, Giant plant response rating",[6]; [14],0
same,"Plant response rating, Foxtail, Giant",[6]; [15],0
same,"Plant response rating, Foxtail, Giant",[6]; [16],0
same,"Plant response rating, Foxtail, Giant",[6]; [17],0
same,Lambsquarters plant response rating,[7],30
same,"Plant response rating, Lambsquarters",[7],40
same,Morningglory plant response rating,[8]; [14],30
same,"Plant response rating, Morningglory",[8]; [15],60
same,"Plant response rating, Morningglory",[8]; [16],0
same,"Plant response rating, Morningglory",[8]; [17],70
same,Pigweed plant response rating,[9]; [14],0
same,"Plant response rating, Pigweed",[9]; [15],30
same,"Plant response rating, Pigweed",[9]; [16],20
same,"Plant response rating, Pigweed",[9]; [17],80
same,Velvetleaf plant response rating,[10]; [14],10
same,"Plant response rating, Velvetleaf",[10]; [15],20
same,"Plant response rating, Velvetleaf",[10]; [16],10
same,"Plant response rating, Velvetleaf",[10]; [17],20
same,Wheat plant response rating,[11]; [14],0
same,"Plant response rating, Wheat",[11]; [15],0
same,"Plant response rating, Wheat",[11]; [16],0
same,"Plant response rating, Wheat",[11]; [17],0
same,Blackgrass plant response rating,[12],0
same,"Plant response rating, Blackgrass",[12],0
same,"Oat, Wild plant response rating",[13],0
same,"Plant response rating, Oat, Wild",[13],20
CCOC(=O)c1nc(C2CC2)nc(N2CCCC2)c1Br [Compound 56],Surinam Grass plant response rating,[1]; [14],0
same,"Plant response rating, Surinam Grass",[1]; [15],0
same,"Plant response rating, Surinam Grass",[1]; [16],0
same,"Plant response rating, Surinam Grass",[1]; [17],0
same,Barnyardgrass plant response rating,[2]; [14],0
same,"Plant response rating, Barnyardgrass",[2]; [15],30
same,"Plant response rating, Barnyardgrass",[2]; [16],0
same,"Plant response rating, Barnyardgrass",[2]; [17],0
same,Cocklebur plant response rating,[3]; [14],0
same,"Plant response rating, Cocklebur",[3]; [15],20
same,"Plant response rating, Cocklebur",[3]; [16],0
same,"Plant response rating, Cocklebur",[3]; [17],30
same,Corn plant response rating,[4]; [14],0
same,"Plant response rating, Corn",[4]; [15],0
same,"Plant response rating, Corn",[4]; [16],0
same,"Plant response rating, Corn",[4]; [17],0
same,Crabgrass plant response rating,[5]; [14],0
same,"Plant response rating, Crabgrass",[5]; [15],0
same,"Plant response rating, Crabgrass",[5]; [16],0
same,"Plant response rating, Crabgrass",[5]; [17],0
same,"Foxtail, Giant plant response rating",[6]; [14],0
same,"Plant response rating, Foxtail, Giant",[6]; [15],0
same,"Plant response rating, Foxtail, Giant",[6]; [16],0
same,"Plant response rating, Foxtail, Giant",[6]; [17],0
same,Lambsquarters plant response rating,[7],20
same,"Plant response rating, Lambsquarters",[7],30
same,Morningglory plant response rating,[8]; [14],0
same,"Plant response rating, Morningglory",[8]; [15],50
same,"Plant response rating, Morningglory",[8]; [17],20
same,Pigweed plant response rating,[9]; [14],50
same,"Plant response rating, Pigweed",[9]; [15],70
same,"Plant response rating, Pigweed",[9]; [17],80
same,Velvetleaf plant response rating,[10]; [14],0
same,"Plant response rating, Velvetleaf",[10]; [15],0
same,"Plant response rating, Velvetleaf",[10]; [16],0
same,"Plant response rating, Velvetleaf",[10]; [17],30
same,Wheat plant response rating,[11]; [14],0
same,"Plant response rating, Wheat",[11]; [15],0
same,"Plant response rating, Wheat",[11]; [16],0
same,"Plant response rating, Wheat",[11]; [17],0
same,Blackgrass plant response rating,[12],0
same,"Plant response rating, Blackgrass",[12],20
same,"Oat, Wild plant response rating",[13],0
same,"Plant response rating, Oat, Wild",[13],20
CCOC(=O)c1nc(C2CC2)nc(NOC(C)(C)C)c1Br [Compound 55],Surinam Grass plant response rating,[1]; [14],0
same,"Plant response rating, Surinam Grass",[1]; [15],0
same,"Plant response rating, Surinam Grass",[1]; [16],0
same,"Plant response rating, Surinam Grass",[1]; [17],50
same,Barnyardgrass plant response rating,[2]; [14],0
same,"Plant response rating, Barnyardgrass",[2]; [15],50
same,"Plant response rating, Barnyardgrass",[2]; [16],0
same,"Plant response rating, Barnyardgrass",[2]; [17],60
same,Cocklebur plant response rating,[3]; [14],20
same,"Plant response rating, Cocklebur",[3]; [15],80
same,"Plant response rating, Cocklebur",[3]; [16],70
same,"Plant response rating, Cocklebur",[3]; [17],90
same,Corn plant response rating,[4]; [14],0
same,"Plant response rating, Corn",[4]; [15],20
same,"Plant response rating, Corn",[4]; [16],0
same,"Plant response rating, Corn",[4]; [17],0
same,Crabgrass plant response rating,[5]; [14],0
same,"Plant response rating, Crabgrass",[5]; [15],30
same,"Plant response rating, Crabgrass",[5]; [16],50
same,"Plant response rating, Crabgrass",[5]; [17],60
same,"Foxtail, Giant plant response rating",[6]; [14],20
same,"Plant response rating, Foxtail, Giant",[6]; [15],20
same,"Plant response rating, Foxtail, Giant",[6]; [16],0
same,"Plant response rating, Foxtail, Giant",[6]; [17],0
same,Lambsquarters plant response rating,[7],70
same,"Plant response rating, Lambsquarters",[7],90
same,Morningglory plant response rating,[8]; [14],80
same,"Plant response rating, Morningglory",[8]; [15],90
same,"Plant response rating, Morningglory",[8]; [16],80
same,"Plant response rating, Morningglory",[8]; [17],100
same,Pigweed plant response rating,[9]; [14],70
same,"Plant response rating, Pigweed",[9]; [15],80
same,"Plant response rating, Pigweed",[9]; [16],80
same,"Plant response rating, Pigweed",[9]; [17],100
same,Velvetleaf plant response rating,[10]; [14],10
same,"Plant response rating, Velvetleaf",[10]; [15],30
same,"Plant response rating, Velvetleaf",[10]; [16],50
same,"Plant response rating, Velvetleaf",[10]; [17],90
same,Wheat plant response rating,[11]; [14],0
same,"Plant response rating, Wheat",[11]; [15],0
same,"Plant response rating, Wheat",[11]; [16],0
same,"Plant response rating, Wheat",[11]; [17],70
same,Blackgrass plant response rating,[12],30
same,"Plant response rating, Blackgrass",[12],40
same,"Oat, Wild plant response rating",[13],0
same,"Plant response rating, Oat, Wild",[13],20
